Test results as given in US10906977B2, “Enhancing the therapeutic activity of immune checkpoint inhibitor” (Maine Medical Center Research Institute, priority 2016, dated 2021).

Legend:
HUVEC = assay: Endothelial cell proliferation with soluble RGD peptides; type: cell-based, human; conditions: 100 ng/ml, 24 hours; FIG. 8C
Method: (§1) HUVECs (WT, shYAP1 or control transfected) or HRMVECs were plated at 2,000 cells per well with complete EGM-2 media containing 2.0% FBS in the absence or presence of P-1, P-2 or P-C (100 ng/ml) and allowed to grow for 24 hours. Cell growth was monitored using a BrdU or MMT assay kits according to manufacturer's instructions. All assays were completed at least three times in triplicate wells.

HRMVEC = assay: as above; type: cell-based, human; conditions: 100 ng/ml, 24 hours; FIG. 8D
Method: as §1

[1] = tested on: chick chorioallantoic membrane (CAM); assay: Chick CAM inflammation induced by soluble RGD collagen peptides; type: in vivo; conditions: FIG. 5D
Method: The chick chorioallantoic membrane (CAM) assays were carried out with some modifications (19). For all experiments CAMs of 10-day-old chick embryos obtained from Charles River (North Franklin, Conn.) were separated from the shell membrane. Filter discs either non-treated (inflammation assays) pretreated (angiogenesis assays) with cortisone acetate (3.0 mg/ml) containing RPMI only or FGF-2 (40 ng). CAMs were either non-treated or treated topically with Mab XL313, XL166 or a non-specific control antibody (10 μg/embryo every 24 h for three consecutive treatments). […] At the end of the incubation period the embryos were sacrificed and the CAM tissues were analyzed. Angiogenesis was quantified by counting the number of angiogenic branching blood vessels within the area of the filter disc. The angiogenic index was determined by subtracting the mean number of blood vessel branch points from untreated CAMs from each experimental condition. Eight to twelve embryos were used per condition and experiments were repeated at least three times.

P38MAPK = assay: Phosphorylated P38MAPK in HRMVEC attached to collagen peptides (Western blot); type: cell-based, human; conditions: cells attached to peptide; FIG. 6E
Method: Endothelial cells (HUVECs or HRMVECs) were incubated in serum free media with 1 mM MgCl2, 0.2 mM MnCl2 in the presence of a Src inhibitor, PP2, (10 μM) a P38MAPK inhibitor, SB202190 (10 μM) or vehicle only (DMSO) for 10 min at 37° C. Treated cells were then seeded on to immobilized P-1 and P-2 and lysates were collected at 15 min.
Whole cell and CAM tissue lysates were collected in RIPA buffer supplemented with 1× protease inhibitor and 1× phosphatase inhibitor and were run on polyacrylamide gels using denaturing conditions. Prior to loading the gels, 6× sample buffer was added to each of the lysates (final concentration 1×) and boiled for five minutes. Twenty to 50 μg of total protein were loaded into each lane. […] Gels were run at 60 volts (v) until the dye front passed through the stacking gel, and then the voltage was increased to 100V for the remainder of the separation. Precision Plus protein standards (Bio-Rad) were used to visualize migration. Protein was transferred to nitrocellulose membranes using a wet tank system and blocked for 1 h using 10% non-fat dried milk in tris-buffered saline with 0.01% Tween-20 (TBS-T). […] Membranes were washed 3 times in TBS-T for five minutes. Blots were then incubated with HRP conjugated secondary antibodies (1:15000) in 1% non-fat milk in TBS-T for 1 h. […] Western blot bands were quantified using Image J software based on pixel intensity.

Src = Src phosphorylation in endothelial cells attached to collagen peptides (Western blot); type: cell-based, human; conditions: FIG. 7D
Method: Whole cell and CAM tissue lysates were collected in RIPA buffer supplemented with 1× protease inhibitor and 1× phosphatase inhibitor and were run on polyacrylamide gels using denaturing conditions. Prior to loading the gels, 6× sample buffer was added to each of the lysates (final concentration 1×) and boiled for five minutes. Twenty to 50 μg of total protein were loaded into each lane. […] Gels were run at 60 volts (v) until the dye front passed through the stacking gel, and then the voltage was increased to 100V for the remainder of the separation. Precision Plus protein standards (Bio-Rad) were used to visualize migration. Protein was transferred to nitrocellulose membranes using a wet tank system and blocked for 1 h using 10% non-fat dried milk in tris-buffered saline with 0.01% Tween-20 (TBS-T). […] Membranes were washed 3 times in TBS-T for five minutes. Blots were then incubated with HRP conjugated secondary antibodies (1:15000) in 1% non-fat milk in TBS-T for 1 h. Membranes were washed a second time as indicated above and exposed to chemiluminecent substrate for three minutes prior to exposure to autoradiography film in a dark room. Western blot bands were quantified using Image J software based on pixel intensity.

integrin αvβ3 = target: T1, integrin αvβ3 (Homo sapiens, UniProt P05106+P06756); assay: Solid phase ELISA, recombinant integrin αvβ3 binding to immobilized peptide P-2; conditions: peptide immobilized 100 μg/ml; FIG. 30
T1 construct: purchased R&D Systems (Minneapolis, Minn.)
T1 sequence (P06756 31-992 limits assumed): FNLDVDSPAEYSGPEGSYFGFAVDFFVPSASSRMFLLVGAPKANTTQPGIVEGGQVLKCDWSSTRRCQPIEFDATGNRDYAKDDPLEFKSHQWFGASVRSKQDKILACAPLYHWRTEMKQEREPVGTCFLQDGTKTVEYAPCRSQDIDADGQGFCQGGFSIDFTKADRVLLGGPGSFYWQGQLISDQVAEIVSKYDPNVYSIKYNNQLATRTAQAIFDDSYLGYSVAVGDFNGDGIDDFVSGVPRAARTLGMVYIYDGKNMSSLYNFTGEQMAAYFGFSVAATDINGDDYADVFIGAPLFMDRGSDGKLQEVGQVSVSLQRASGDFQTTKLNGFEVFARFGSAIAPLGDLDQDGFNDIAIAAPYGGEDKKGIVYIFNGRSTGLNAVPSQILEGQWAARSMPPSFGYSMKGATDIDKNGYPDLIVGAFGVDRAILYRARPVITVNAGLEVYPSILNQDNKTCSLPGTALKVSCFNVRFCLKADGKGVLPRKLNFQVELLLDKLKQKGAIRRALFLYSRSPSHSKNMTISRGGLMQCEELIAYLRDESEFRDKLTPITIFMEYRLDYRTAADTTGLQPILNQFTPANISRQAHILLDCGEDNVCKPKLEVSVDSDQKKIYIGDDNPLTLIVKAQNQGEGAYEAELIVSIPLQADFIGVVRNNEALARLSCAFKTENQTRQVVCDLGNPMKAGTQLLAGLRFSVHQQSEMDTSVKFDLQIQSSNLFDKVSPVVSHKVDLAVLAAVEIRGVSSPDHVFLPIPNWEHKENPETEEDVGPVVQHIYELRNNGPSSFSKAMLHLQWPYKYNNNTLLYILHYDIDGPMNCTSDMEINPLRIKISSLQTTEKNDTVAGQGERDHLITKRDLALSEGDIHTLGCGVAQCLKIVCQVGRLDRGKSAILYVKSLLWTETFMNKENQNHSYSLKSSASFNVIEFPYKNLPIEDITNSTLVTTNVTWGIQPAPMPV
T1 sequence (P05106 27-718 limits assumed): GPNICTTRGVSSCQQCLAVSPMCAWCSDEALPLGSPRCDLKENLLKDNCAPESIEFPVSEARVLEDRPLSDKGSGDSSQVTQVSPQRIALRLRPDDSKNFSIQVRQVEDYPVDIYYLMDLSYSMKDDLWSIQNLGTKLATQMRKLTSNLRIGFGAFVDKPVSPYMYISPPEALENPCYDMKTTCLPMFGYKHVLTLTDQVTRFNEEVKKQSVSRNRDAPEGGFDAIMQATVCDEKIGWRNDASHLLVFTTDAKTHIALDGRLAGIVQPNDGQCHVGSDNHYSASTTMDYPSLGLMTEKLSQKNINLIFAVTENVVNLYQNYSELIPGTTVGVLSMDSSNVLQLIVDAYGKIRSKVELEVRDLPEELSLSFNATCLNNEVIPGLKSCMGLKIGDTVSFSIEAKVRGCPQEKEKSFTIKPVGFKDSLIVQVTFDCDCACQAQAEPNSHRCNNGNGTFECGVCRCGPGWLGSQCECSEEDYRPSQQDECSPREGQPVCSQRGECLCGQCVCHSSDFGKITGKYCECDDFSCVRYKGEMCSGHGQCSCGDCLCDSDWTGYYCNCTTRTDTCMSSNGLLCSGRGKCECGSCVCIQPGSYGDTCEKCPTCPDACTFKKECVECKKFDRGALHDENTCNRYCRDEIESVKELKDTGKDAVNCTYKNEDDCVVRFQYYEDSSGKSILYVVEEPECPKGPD
Method: The cryptic collagen peptide P-2 was immobilized (100 μg/ml) on microtiter wells and increasing concentrations of recombinant integrin αvβ3 was added and integrin binding was quantified. Data bars indicate mean integrin binding±standard deviation from triplicate wells.
The cryptic collagen peptide P-2 was immobilized (100 μg/ml) on microtiter wells and recombinant integrin αvβ3 was added and it was allowed to bind in the presence (50 μg/ml) or absence of Mab X1313 or control antibody (Mab XL166 directed to other collagen RGD peptides). Data bars indicate mean integrin binding±standard deviation from triplicate wells.

Fak = Fak phosphorylation in endothelial cells attached to collagen peptides; type: cell-based, human; conditions: serum free conditions
Method: Whole cell and CAM tissue lysates were collected in RIPA buffer supplemented with 1× protease inhibitor and 1× phosphatase inhibitor and were run on polyacrylamide gels using denaturing conditions. Prior to loading the gels, 6× sample buffer was added to each of the lysates (final concentration 1×) and boiled for five minutes. Twenty to 50 μg of total protein were loaded into each lane. For detection of proteins larger than 50 kD, 10% gels were used; for proteins smaller than 50 kD 15% gels were used. Gels were run at 60 volts (v) until the dye front passed through the stacking gel, and then the voltage was increased to 100V for the remainder of the separation. Precision Plus protein standards (Bio-Rad) were used to visualize migration. Protein was transferred to nitrocellulose membranes using a wet tank system and blocked for 1 h using 10% non-fat dried milk in tris-buffered saline with 0.01% Tween-20 (TBS-T). […] Western blot bands were quantified using Image J software based on pixel intensity.

PD-L1 = PD-L1 in control and β3 integrin knock down T-cells stimulated with peptide (western blot); type: cell-based, human; conditions: FIG. 33
Method: In order to confirm the functional role of integrin αvβ3 receptor in regulating the levels of the immune suppressive molecule PD-L1 by the XL313 cryptic collagen peptide P2, the expression of PD-L1 was examined in β3 integrin knock down and control transfected T-cells. Whole cell lysates from control transfected (Cont T-cells) and β3 integrin shRNA transfected T-cells (β3/KD) that were stimulated with control peptide (PC) or the XL313 cryptic collagen peptide (P2) were analyzed by western blot for expression of PD-L1.

Sequence: CQGPRGDKGEC [Mab P-2]
- HUVEC growth with soluble peptide (HUVEC): enhanced endothelial cell growth
- HRMVEC growth with soluble peptide (HRMVEC): enhanced endothelial cell growth
- CAM inflammation following stimulation with peptide [1]: induced inflammation to nearly that of FGF-2 stimulation
- phosphorylation of P38MAPK in HRMVEC, as compared to P-1 (P38MAPK): enhanced phosphorylation of P38MAPK
- enhancement of Src phosphorylation as compared to P-1 (Src): ~2 fold
- binding of integrin receptor αvβ3 to peptide (integrin αvβ3): dose-dependently binds
- Fak phosphorylation following ligation of peptide (Fak): Minimal Fak phosphorylation
- expression of PD-L1 in control transfected T-cells (PD-L1): enhanced expression of PD-L1
- expression of PD-L1 in β3 integrin knock down cells (PD-L1): little ability to enhance the expression of PD-L1
